pIC50, pKi: −log10 of the molar value.
What was measured:
[1] = test system: Rattus norvegicus; assay: Reduction in alcohol intake in alcohol-preferring rat at 3 mg/kg, sc after 30 mins; type: functional; conditions: 0.5 h, route subcutaneous
[2] = target: CYP2D6 (Homo sapiens, UniProt P10635); assay: Inhibition of CYP2D6 (unknown origin) at 3 uM after 8 mins; type: ADME
[3] = test system: human MDR1 (P-gp); assay: Efflux ratio of apparent permeability from basolateral to apical side over apical to basolateral side in MDCK cells transfected with human MDR1; type: ADME, cell-based, Canis lupus familiaris; conditions: dog
[4] = Intrinsic clearance in human liver microsomes; type: ADME; conditions: read-out: CLH
[5] = target: T1, Mu-type opioid receptor (Homo sapiens, UniProt P35372); assay: Displacement of [3H]diprenorphine from human mu opioid receptor expressed in cells after 1 hr by liquid scintillation counting analysis; type: cell-based
T1 sequence (P35372 whole entry): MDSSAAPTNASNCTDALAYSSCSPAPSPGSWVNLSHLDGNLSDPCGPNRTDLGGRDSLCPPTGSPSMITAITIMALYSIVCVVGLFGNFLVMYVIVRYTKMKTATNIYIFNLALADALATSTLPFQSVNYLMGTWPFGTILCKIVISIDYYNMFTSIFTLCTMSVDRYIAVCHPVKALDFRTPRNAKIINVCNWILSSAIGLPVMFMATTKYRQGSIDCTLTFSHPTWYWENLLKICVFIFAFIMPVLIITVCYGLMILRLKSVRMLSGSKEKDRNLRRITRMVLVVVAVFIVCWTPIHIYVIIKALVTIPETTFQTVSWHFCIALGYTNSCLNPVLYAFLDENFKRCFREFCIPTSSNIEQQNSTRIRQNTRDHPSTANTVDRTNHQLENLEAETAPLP

[6] = target: Delta-type opioid receptor (Homo sapiens, UniProt P41143); assay: Displacement of [3H]diprenorphine from human delta opioid receptor expressed in cells after 1 hr by liquid scintillation counting analysis; type: cell-based
Sequence of Delta-type opioid receptor (P41143 whole entry): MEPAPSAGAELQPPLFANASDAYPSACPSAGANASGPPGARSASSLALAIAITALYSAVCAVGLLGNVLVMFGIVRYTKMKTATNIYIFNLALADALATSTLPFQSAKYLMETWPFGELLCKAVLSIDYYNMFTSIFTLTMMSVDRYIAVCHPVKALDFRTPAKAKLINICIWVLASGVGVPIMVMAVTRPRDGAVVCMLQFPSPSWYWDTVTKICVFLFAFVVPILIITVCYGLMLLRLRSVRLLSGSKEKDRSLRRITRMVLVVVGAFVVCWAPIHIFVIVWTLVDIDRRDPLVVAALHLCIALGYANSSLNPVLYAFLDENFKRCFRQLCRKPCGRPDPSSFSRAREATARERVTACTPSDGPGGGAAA

[7] = species on record: Homo sapiens; assay: Ratio of ki for human mu opioid receptor to human kappa opioid receptor
[8] = target: Voltage-gated inwardly rectifying potassium channel KCNH2 (Homo sapiens, UniProt Q12809); assay: Inhibition of human ERG by [3H]dofetilide binding assay
Sequence of Voltage-gated inwardly rectifying potassium channel KCNH2 (Q12809 whole entry): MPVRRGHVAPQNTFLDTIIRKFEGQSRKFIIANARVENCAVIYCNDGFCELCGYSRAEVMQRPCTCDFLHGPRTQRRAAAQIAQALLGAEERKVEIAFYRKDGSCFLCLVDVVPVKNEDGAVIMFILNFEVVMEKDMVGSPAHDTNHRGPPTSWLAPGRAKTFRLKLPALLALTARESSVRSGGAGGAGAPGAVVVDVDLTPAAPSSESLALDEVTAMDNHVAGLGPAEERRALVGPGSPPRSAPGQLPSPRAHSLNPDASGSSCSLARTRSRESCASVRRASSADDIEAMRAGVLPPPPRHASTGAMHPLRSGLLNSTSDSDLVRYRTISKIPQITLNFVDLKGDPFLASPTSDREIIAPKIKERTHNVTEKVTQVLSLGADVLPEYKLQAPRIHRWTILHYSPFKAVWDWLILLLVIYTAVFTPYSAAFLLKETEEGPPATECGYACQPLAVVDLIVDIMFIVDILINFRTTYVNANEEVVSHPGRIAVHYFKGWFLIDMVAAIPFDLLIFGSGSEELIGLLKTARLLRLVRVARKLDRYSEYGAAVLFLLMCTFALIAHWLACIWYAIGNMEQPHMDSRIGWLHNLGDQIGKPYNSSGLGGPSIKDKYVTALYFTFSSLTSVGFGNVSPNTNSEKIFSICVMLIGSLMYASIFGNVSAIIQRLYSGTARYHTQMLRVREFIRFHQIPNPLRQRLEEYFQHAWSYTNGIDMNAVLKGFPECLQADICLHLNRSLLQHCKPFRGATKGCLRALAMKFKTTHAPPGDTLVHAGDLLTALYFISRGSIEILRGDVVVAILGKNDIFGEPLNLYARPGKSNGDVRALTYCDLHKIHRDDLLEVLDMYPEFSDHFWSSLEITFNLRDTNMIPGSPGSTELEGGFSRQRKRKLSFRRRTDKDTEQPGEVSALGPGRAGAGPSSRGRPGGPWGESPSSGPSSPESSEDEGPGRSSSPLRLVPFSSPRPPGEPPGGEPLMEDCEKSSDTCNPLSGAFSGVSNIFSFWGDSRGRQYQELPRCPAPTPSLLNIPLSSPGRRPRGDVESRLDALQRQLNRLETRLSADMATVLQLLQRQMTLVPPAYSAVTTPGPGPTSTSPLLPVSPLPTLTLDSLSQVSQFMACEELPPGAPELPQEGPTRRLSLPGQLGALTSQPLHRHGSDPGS

[9] = target: T1, Mu-type opioid receptor; assay: Antagonist activity at human mu opioid receptor expressed in CHO cells assessed as [35S]-GTPgammaS binding after 1 hr by liquid scintillation counting analysis; type: functional, cell-based
[10] = species on record: Homo sapiens; assay: Ratio of Ki for human mu opioid receptor to Ki for human delta opioid receptor
[11] = target: Kappa-type opioid receptor (Homo sapiens, UniProt P41145); assay: Displacement of [3H]diprenorphine from human kappa opioid receptor expressed in cells after 1 hr by liquid scintillation counting analysis; type: cell-based
Sequence of Kappa-type opioid receptor (P41145 whole entry): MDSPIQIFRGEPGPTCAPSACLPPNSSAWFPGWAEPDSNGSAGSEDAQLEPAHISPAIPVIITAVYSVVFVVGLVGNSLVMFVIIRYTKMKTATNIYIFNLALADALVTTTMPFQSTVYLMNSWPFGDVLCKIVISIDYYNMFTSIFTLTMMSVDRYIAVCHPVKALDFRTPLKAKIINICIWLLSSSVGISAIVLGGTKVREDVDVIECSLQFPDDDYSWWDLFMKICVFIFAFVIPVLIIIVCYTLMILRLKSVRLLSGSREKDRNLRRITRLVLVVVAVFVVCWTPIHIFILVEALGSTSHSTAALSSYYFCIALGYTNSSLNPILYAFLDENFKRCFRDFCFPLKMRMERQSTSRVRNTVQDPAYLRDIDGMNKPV

[12] = Drug level in rat cerebrospinal fluid at 1 mg/kg, sc at 0.75 hrs time-point; type: ADME, organism-based; set-up: dose 1 mg/kg, route subcutaneous; conditions: read-out: Drug uptake
[13] = Half life in rat; type: ADME, organism-based; conditions: in vivo
[14] = Clearance in rat; type: ADME, organism-based; conditions: in vivo
[15] = test system: Rattus norvegicus; assay: Reduction in alcohol intake in alcohol-preferring rat at 1 mg/kg, sc after 30 mins; type: functional; conditions: 0.5 h, route subcutaneous
[16] = Total plasma concentration in rat at 1 mg/kg, sc at 0.75 hrs time-point; type: ADME, organism-based; set-up: dose 1 mg/kg, route subcutaneous
[17] = Volume of distribution in rat; type: ADME, organism-based; conditions: in vivo
[18] = test system: Rattus norvegicus; assay: Reduction in alcohol intake in alcohol-preferring rat at 5.6 mg/kg, sc after 30 mins; type: functional; conditions: 0.5 h, route subcutaneous
[19] = Ratio of drug level in rat brain to plasma at 1 mg/kg, sc at 0.75 hrs time-point; type: ADME, organism-based; set-up: dose 1 mg/kg, route subcutaneous; conditions: read-out: BPR
[20] = Fraction unbound in rat at 1 mg/kg, sc at 0.75 hrs time-point; type: ADME, organism-based; set-up: dose 1 mg/kg, route subcutaneous; conditions: plasma
[21] = test system: Rattus norvegicus; assay: Antagonist activity against morphine-induced antinociception in sc dosed rat assessed as reversal of latency increase; type: functional
[22] = test system: Rattus norvegicus; assay: Reduction in alcohol intake in sc dosed alcohol-preferring rat after 30 mins; type: functional, organism-based
[23] = Inhibition of IC20 for human ERG over plasma efficacious concentration; type: functional
[24] = target: hERG (KCNH2) (Homo sapiens, UniProt Q12809); assay: Inhibition of human ERG
Sequence of hERG (KCNH2) (Q12809 whole entry): as the sequence (Q12809 whole entry) above

Sequence of CYP2D6 (P10635 whole entry): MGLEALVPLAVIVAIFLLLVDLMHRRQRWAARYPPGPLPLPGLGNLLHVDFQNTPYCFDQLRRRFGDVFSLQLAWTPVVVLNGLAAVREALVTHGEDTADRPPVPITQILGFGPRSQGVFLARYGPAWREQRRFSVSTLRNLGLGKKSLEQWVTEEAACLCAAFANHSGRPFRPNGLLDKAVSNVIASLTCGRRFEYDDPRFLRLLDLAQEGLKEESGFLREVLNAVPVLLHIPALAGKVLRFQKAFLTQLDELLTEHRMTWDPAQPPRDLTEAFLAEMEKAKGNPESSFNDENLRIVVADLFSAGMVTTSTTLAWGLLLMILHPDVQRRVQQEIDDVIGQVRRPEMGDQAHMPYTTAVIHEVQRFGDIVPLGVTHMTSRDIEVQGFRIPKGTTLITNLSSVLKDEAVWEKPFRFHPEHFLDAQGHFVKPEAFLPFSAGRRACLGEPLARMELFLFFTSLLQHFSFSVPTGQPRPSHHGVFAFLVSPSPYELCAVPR

SMILES | inhibition at 8 min, 3 µM [2] | efflux ratio [3] | CLint scaled [4] | pKi [5] | pKi [6] | Ratio Ki [7] | pIC50 [8] | pKi [9] | Ratio Ki [10] | pKi [11] | ED50 [21] | also measured
O=C1CC[C@@]2(O)[C@H]3Cc4ccc(O)c5c4[C@@]2(CCN3CC2CC2)[C@H]1O5 [NALTREXONE] | – | – | – | – | – | – | – | – | – | – | – | inhibition in vivo at 3 mg/kg [1]: 21%
CC[C@]1(c2cccc(C(N)=O)c2)[C@@H]2CN(CC3(O)Cc4ccccc4C3)C[C@@H]21 | 17% | 2.9 | 11 mL/min/kg | 8.46 | 6.97 | 17 | 5.66 | 9.80 | 31 | 7.22 | – | –
CC[C@]1(c2cccc(NS(C)(=O)=O)c2)[C@@H]2CN(CC3(O)Cc4ccccc4C3)C[C@@H]21 [CP-866087] | 6% | – | 12 mL/min/kg | 9.00 | 6.77 | – | – | 9.55 | – | 7.38 | 0.1 mg/kg | concentration at 0.75 h [12]: 11.9 nM; half-life [13]: 11 h; clearance [14]: 120 mL/min/kg; inhibition in vivo at 1 mg/kg [15]: 23%; concentration at 0.75 h [16]: 338 nM; Vd [17]: 21.7 L/kg; inhibition in vivo at 5.6 mg/kg [18]: 42%; Kp at 0.75 h [19]: 2; fraction unbound at 0.75 h [20]: 0.034; inhibition [22]: Dose-dependent effect
CC[C@]1(c2cccc(NS(C)(=O)=O)c2)[C@@H]2CN(CC3Cc4ccccc4C3)C[C@@H]21 | 35% | 3.5 | 19 mL/min/kg | – | – | – | 6.49 | – | – | – | – | –
CC[C@]1(c2cccc(NS(C)(=O)=O)c2)[C@@H]2CN(CCCC3(O)CCCCC3)C[C@@H]21 | 14% | 6.5 | 9 mL/min/kg | 8.70 | 6.78 | 8 | 6.15 | 9.74 | 83 | 7.80 | 0.63 mg/kg | Ratio [23]: 15; IC20 [24]: 320 nM

Source: ChEMBL document CHEMBL3217574, “Discovery of CP-866,087, a mu opioid receptor antagonist for the treatment of alcohol abuse and dependence” (Medchemcomm, 2011)
